Earlier results, collected in US12686665B2, “Bicyclic fused ring derivative or salt thereof and pharmaceutical composition comprising same” (YUHAN CORPORATION, priority 2021, dated 2026).

B1: Simtuzumab: a monoclonal antibody against LOXL2 (antibody, chains of the INN, looked up, V domains shown)
VH: QVQLVQSGAEVKKPGASVKVSCKASGYAFTYYLIEWVRQAPGQGLEWIGVINPGSGGTNYNEKFKGRATITADKSTSTAYMELSSLRSEDTAVYFCARNWMNFDYWGQGTTVTVSS
VL: DIVMTQTPLSLSVTPGQPASISCRSSKSLLHSNGNTYLYWFLQKPGQSPQFLIYRMSNLASGVPDRFSGSGSGTDFTLKISRVEAEDVGVYYCMQHLEYPYTFGGGTKVEIK

Legend:
[1] = system: liver and cardiacfibrosis; settings: in vivo; cited from earlier work
[2] = system: NASH patients with advanced liver fibrosis and liver cirrhosis; settings: after 4 years of the treatment; cited from earlier work

Molecule	liver and cardiac fibrosis [1]	histological efficacy [2]
N#CCCN [β-Aminopropionitrile]	improve liver and cardiacfibrosis	
B1		failure to prove histological efficacy
